From patent US20250074908A1, “SALT OF ROCK INHIBITOR, CRYSTAL FORM OF SALT, COMPOSITION, AND PHARMACEUTICAL USE” (WUHAN CREATERNA SCIENCE AND TECHNOLOGY CO., LTD., priority 2022, published 2025)
pIC50: −log10 of the molar value.

Columns and labels:
[1] = In-vitro cytotoxicity assay, CCK-8 method; format: cell-based; settings: human, HepG2 cells
Experimental: In-vitro cytotoxicity assay for compound I was performed in HepG2 cells using the CCK-8 method. HepG2 cells (Beina Bio) in the logarithmic growth phase were collected, the concentration of cell suspension was adjusted, and then the cells were plated on a 96-well cell culture plate at 50000 cells/well. The cells were then incubated in a cell incubator (5%, 37° C.) overnight. After 80%-90% cell confluence in the plate was achieved, medium change was performed, and then the test compound at each concentration gradient or vehicle (DMSO) was added. The resulting mixture was incubated in the cell incubator (5%, 37° C.) for 48 h. After the treatment was completed, the medium in the plate was discarded. The plate was washed twice with PBS, and a CCK-8 working solution (Beyotime) was added at 100 μL per well. The resulting mixture was then incubated at 37° C. for 1.5 h in the dark. The absorbance at OD450 nm was measured for each well on a microplate reader, and the CC50 value of each compound was analyzed and calculated.

[2] = Pharmacokinetic study in rats; format: in vivo, SD rats; settings: male, SD, rat, in vivo, po, 10 mg/kg
Experimental: Compound I, 2-hydroxyethanesulfonate of compound I, ethanesulfonate (crystal form I) of compound I, tartrate of compound I, and sulfate of compound I were each accurately weighed, and the required volume of vehicle was added. The mixture was stirred for 5 min, then sonicated below 25° C. until no large particles were visible to the naked eye, and further stirred for 30 min until a homogeneous suspension was obtained. The suspension was then used for administration.
Male SPF-grade SD rats (Beijing Vital River Laboratory Animal Technology Co., Ltd.) were given compound I, the 2-hydroxyethanesulfonate of compound I, the ethanesulfonate of compound I (crystal form I), the tartrate of compound I, and the sulfate of compound I by single intragastric administration after an acclimation period (with free access to water and food). Blood was collected from the orbital venous plexus of the rats at 0.167 h, 0.5 h, 1 h, 2 h, 3 h, 4 h, 6 h, 9 h, 12 h, and 24 h after administration. Each blood sample was centrifuged at 3500×g for 10 min at 4° C. The supernatant was then collected, and the concentration of compound I in the plasma was measured by LC-MS/MS (AB Sciex TRIPLE QUAD 3500). The data were analyzed using a non-compartmental model in WinNonlin (version 5.2.1 Pharsight, Mountain View, CA) to obtain PK parameters.

ROCK2 kinase = target: T1, ROCK2 kinase (Homo sapiens, UniProt O75116); experiment: In-vitro evaluation of ROCK2 kinase activity (HTRF KinEASE-STK); format: biochemical
T1 construct: purchased Invitrogen PV3759
Experimental: ROCK2 activity screening: ROCK2 activity was detected using a 96-well (Cisbio) time-resolved fluorometric assay. The assay for ROCK2 was performed in the following assay buffer: 5 mM MgCl2 (Sigma), 1 mM DTT (Sigma), and 1× kinase buffer. The kinase buffer was used for dilution. 7.5 μL of ROCK2 kinase (Invitrogen, PV3759) was first added to a 96-well microplate to achieve a final concentration of 0.4 ng/μL, and then […] of compound I (DMSO content: 1% (volume fraction)) was added. The mixture was incubated at room temperature for 0.5 h. To start the reaction, the kinase buffer was used to mix ATP (Aladdin) and the substrate STK-substrate 2-biotin. 7.5 μL of the mixed solution was added to the microplate to achieve final concentrations of 6.739 μM and 1 μM. The resulting mixture was incubated at room temperature for another 2 h. 5 mL of detection buffer was mixed with STK antibody-Cryptate, and then an appropriate volume of the mixture was mixed with an equal volume of streptavidin-XL665. 10 μL of the resulting mixture was added to the microplate to stop the reaction. After further incubation for about 1 h, the microplate was read on a Molecular Devices Spectra Max i3x multifunctional microplate reader. […]

ROCK1 kinase = target: T2, ROCK1 kinase (Homo sapiens, UniProt Q13464); experiment: In-vitro evaluation of ROCK1 kinase selectivity (HTRF KinEASE-STK); format: biochemical
T2 construct: purchased Invitrogen
Experimental: ROCK1 activity was detected using a 96-well (Cisbio) time-resolved fluorometric assay. The assay for ROCK1 was performed in the following assay buffer: 5 mM MgCl2 (Sigma), 1 mM DTT (Sigma), and 1× kinase buffer. The kinase buffer was used for dilution. 7.5 μL of ROCK1 kinase (Invitrogen) was first added to a 96-well microplate to achieve a final concentration of 0.4 ng/μL, and then 0.25 μL of the compound (DMSO content: 1%) was added. The mixture was incubated at room temperature for 0.5 h. To start the reaction, the kinase buffer was also used to mix ATP (Aladdin) and the substrate STK-substrate 2-biotin. 7.5 μL of the mixed solution was added to the microplate to achieve final concentrations of 3.53 μM and 1 μM. The resulting mixture was incubated at room temperature for another 2 h. 5 mL of detection buffer was mixed with STK antibody-Cryptate, and then an appropriate volume of the mixture was mixed with an equal volume of streptavidin-XL665. 10 μL of the resulting mixture was added to stop the reaction. After further incubation for about 1 h, the microplate was read on a Molecular Devices SpectraMax i3x multifunctional microplate reader. The kinase buffer, the STK-substrate 2-biotin, the detection buffer, the STK antibody-Cryptate, and the streptavidin-XL665 were all from HTRF KinEASE-STK kit (Cisbio, 1000 tests, 61GSTXLA).

[3] = Chemical stability on storage up to 3 months (HPLC purity), Table 13-4; format: physicochemical; settings: 40° C./75% humidity, sealed and protected from light
[4] = as above; format: physicochemical; settings: for Purity (%), 230 nm, Month 1 / Purity (%), 230 nm, Month 3: sealed and protected from light
Experimental: B) The HPLC method used for the stability study was as follows:
The vials were sealed with tin foil and then separately placed under the conditions of 40° C. temperature/75% humidity or 25° C. temperature/60% humidity for about 3 months. The samples after being placed for 0 months, 2 weeks, 1 month and 3 months were taken and each dissolved in a diluent to prepare a solution at about 1.0 mg/mL, which was then tested for chemical stability by HPLC analysis using Shimadzu LC-20ADxr.

T1 sequence (O75116 whole entry): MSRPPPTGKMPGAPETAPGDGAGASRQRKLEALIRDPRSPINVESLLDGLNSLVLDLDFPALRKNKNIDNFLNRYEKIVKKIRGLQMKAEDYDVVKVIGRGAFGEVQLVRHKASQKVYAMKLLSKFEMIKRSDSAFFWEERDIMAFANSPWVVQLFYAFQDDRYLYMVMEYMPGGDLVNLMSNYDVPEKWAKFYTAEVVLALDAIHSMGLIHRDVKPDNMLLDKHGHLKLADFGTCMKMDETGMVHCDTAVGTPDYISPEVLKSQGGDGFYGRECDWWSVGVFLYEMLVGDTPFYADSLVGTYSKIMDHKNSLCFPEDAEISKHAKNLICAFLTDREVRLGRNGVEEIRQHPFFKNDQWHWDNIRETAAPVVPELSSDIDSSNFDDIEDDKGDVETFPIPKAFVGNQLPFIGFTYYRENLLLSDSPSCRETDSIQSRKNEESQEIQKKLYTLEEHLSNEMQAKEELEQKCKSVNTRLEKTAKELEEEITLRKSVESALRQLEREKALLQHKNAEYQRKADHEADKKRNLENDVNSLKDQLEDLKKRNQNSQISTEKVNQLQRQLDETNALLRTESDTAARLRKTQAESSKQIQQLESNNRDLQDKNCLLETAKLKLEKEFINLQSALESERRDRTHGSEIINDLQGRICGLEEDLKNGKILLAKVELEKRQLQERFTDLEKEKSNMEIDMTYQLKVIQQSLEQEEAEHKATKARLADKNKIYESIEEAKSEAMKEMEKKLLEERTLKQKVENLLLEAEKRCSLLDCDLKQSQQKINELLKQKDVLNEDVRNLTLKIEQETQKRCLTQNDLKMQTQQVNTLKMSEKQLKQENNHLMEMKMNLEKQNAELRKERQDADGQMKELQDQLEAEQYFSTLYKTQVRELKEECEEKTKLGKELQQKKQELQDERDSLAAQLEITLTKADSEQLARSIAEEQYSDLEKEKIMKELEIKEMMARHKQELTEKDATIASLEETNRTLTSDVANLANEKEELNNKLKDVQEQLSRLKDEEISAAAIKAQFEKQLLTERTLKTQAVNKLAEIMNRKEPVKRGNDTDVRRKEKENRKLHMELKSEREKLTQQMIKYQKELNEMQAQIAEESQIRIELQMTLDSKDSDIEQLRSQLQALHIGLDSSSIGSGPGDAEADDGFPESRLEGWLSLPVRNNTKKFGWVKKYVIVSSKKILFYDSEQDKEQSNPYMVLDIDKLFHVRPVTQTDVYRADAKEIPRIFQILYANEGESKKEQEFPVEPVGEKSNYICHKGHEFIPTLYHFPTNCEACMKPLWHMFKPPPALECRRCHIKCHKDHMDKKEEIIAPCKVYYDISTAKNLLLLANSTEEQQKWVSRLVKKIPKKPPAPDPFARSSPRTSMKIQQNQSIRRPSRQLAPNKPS
T2 sequence (Q13464 whole entry): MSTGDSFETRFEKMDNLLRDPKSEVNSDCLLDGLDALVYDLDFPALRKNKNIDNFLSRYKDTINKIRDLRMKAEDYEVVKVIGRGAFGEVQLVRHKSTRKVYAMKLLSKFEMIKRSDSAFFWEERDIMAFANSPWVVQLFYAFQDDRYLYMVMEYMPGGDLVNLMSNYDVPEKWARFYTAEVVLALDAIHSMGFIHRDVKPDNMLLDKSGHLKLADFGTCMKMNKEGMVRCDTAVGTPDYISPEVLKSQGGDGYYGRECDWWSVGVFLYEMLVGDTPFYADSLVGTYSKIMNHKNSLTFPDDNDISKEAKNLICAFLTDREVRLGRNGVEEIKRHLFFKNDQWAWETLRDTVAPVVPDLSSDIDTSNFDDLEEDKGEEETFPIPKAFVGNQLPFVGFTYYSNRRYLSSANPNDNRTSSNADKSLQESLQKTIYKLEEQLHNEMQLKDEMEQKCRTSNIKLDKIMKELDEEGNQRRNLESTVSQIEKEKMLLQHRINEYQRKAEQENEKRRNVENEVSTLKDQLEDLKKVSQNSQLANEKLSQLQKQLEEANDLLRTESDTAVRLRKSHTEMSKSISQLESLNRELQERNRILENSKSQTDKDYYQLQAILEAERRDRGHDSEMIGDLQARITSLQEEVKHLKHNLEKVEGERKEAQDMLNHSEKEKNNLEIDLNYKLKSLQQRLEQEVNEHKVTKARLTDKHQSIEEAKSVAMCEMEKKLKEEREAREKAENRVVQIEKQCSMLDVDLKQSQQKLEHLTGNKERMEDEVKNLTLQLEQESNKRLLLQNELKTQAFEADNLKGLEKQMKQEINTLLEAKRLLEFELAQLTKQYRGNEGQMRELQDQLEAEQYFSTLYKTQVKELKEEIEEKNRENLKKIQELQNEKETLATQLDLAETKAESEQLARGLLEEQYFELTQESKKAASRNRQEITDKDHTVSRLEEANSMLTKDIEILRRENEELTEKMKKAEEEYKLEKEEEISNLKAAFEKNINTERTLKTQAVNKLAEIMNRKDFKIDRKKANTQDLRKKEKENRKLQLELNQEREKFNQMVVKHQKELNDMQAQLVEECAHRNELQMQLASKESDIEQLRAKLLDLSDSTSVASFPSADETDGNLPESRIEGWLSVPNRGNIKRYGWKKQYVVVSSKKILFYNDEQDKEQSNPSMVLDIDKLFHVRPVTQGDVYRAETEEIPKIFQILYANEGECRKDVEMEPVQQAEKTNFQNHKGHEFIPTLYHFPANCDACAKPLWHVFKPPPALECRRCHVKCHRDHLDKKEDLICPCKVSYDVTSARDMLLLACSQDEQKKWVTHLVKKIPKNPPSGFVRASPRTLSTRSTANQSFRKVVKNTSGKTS

| AUC(0-t) [2] | Cmax [2] | pIC50 (ROCK2 kinase) | pIC50 (ROCK1 kinase) | Purity (%), 230 nm, Month 2 [3] | stability in chemical properties ([4]; 25° C./60% humidity and 40° C./75% humidity (sealed and protected from light)) | Purity (%), 230 nm, Month 1 ([4]; 25° C./60% humidity) | Purity (%), 230 nm, Month 3 ([4]; 25° C./60% humidity) | Purity (%), 230 nm, Month 1 ([4]; 40° C./75% humidity) | Purity (%), 230 nm, Month 3 ([4]; 40° C./75% humidity) | Purity (%), 230 nm, Day 0 ([4]; Day 0) | SMILES | CC50 at 48 h [1] |
| --- | --- | --- | --- | --- | --- | --- | --- | --- | --- | --- | --- | --- |
| 2040 ng·h/mL | 251 ng/mL | 7.44 | < 5.35 | – | – | – | – | – | – | – | Cn1c(C(=O)N2CC(F)(F)C2)cc2c1CN(c1ncc(F)c(Nc3ccc(-c4cn[nH]c4)cc3)n1)CC2 [Compound I, (6-(4-((4-(1H-pyrazol-4-yl)phenyl)amino)-5-fluoropyrimidin-2-yl)-1-methyl-4,5,6,7-tetrahydro-1H-pyrrolo[2,3-c]pyridin-2-yl)(3,3-difluoroazetidin-1-yl)methanone] | > 100 µM |
| – | – | – | – | 99.18% | substantially stable | 99.00% | 99.02% | 98.95% | 99.04% | 98.98% | Cn1c(C(=O)N2CC(F)(F)C2)cc2c1CN(c1ncc(F)c(Nc3ccc(-c4cn[nH]c4)cc3)n1)CC2.O=C(O)C(O)C(O)C(=O)O [Crystal form I of tartrate] | – |
